Experimental data: PMC2375285, “Inhibition of all-TRANS-retinoic acid metabolism by R116010 induces antitumour activity” (British Journal of Cancer, 2002)

How the values were obtained:
[1] = molecular target: T1, CYP2C11 (Rattus norvegicus, UniProt P08683); assay: Testosterone 2α-hydroxylase in rat liver microsomes; type: biochemical; conditions: Rat liver microsomes
T1 construct: hydroxylation of testosterone (CYP2C11, CYP2A1, CYP3A, CYP2B1/2) in rat liver microsomes; from tissue; host or cells: rat liver, microsomes
T1 sequence (P08683 1-500): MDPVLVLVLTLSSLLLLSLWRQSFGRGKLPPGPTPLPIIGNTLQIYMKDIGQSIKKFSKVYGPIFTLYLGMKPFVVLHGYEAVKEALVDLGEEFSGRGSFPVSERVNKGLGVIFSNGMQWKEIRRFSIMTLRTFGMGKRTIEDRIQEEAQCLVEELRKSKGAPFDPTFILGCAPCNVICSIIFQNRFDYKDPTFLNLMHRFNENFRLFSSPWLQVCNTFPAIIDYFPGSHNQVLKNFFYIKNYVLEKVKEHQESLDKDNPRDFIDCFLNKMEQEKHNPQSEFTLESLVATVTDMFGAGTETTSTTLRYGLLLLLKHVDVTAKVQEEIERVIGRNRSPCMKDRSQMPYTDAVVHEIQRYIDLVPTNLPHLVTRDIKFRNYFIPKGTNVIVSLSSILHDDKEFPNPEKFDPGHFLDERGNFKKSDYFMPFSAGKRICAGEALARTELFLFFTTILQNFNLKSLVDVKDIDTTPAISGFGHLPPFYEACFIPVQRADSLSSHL
Protocol: (§1) The conversion of androstenedione to estrone by aromatase (CYP19) in human placental microsomes, the conversion of 17-hydroxy-20-dihydroprogesterone to testosterone by 17,20-lyase (CYP17) in rat testicular S10 fractions, and the 2α-, 7α-, 6β-, and 16β-hydroxylation of testosterone (CYP2C11, CYP2A1, CYP3A, CYP2B1/2) in rat liver microsomes were carried out as described ([Vanden Bossche et al, 1990]).

[2] = system: CYP3A; conditions: microsomes
Protocol: as §1

[3] = molecular target: T2, 17,20-lyase (CYP17) (Rattus norvegicus, UniProt P11715); assay: 17,20-lyase in rat testicular S10 fraction; type: biochemical
T2 construct: 17,20-lyase (CYP17) in rat testicular S10 fractions; from tissue; host or cells: rat testis, S10 fraction
T2 sequence (P11715 1-507): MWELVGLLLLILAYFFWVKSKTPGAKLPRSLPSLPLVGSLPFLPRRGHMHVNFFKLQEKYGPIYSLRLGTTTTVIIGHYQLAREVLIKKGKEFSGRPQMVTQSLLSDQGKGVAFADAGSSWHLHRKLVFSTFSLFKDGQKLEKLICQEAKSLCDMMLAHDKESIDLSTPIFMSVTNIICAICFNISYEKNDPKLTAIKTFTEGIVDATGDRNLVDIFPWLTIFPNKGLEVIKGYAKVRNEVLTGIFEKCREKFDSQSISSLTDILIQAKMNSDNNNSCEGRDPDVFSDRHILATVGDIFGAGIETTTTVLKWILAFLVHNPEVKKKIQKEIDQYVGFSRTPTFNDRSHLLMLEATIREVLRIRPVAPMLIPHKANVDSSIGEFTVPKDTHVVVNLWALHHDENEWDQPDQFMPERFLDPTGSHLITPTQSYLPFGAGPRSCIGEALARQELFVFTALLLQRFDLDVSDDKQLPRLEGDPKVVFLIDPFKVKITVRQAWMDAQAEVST
Protocol: Metabolism of RA by CYP26A1 was measured in microsomes of T47D human breast cancer cells that were pretreated for 16 h with 1 μM RA to induce RA metabolism. Microsomes were prepared exactly as described by [Han and Choi (1996)], and RA metabolism was measured as described by [Van Wauwe et al (1994)]. The conversion of androstenedione to estrone by aromatase (CYP19) in human placental microsomes, the conversion of 17-hydroxy-20-dihydroprogesterone to testosterone by 17,20-lyase (CYP17) in rat testicular S10 fractions, and the 2α-, 7α-, 6β-, and 16β-hydroxylation of testosterone (CYP2C11, CYP2A1, CYP3A, CYP2B1/2) in rat liver microsomes were carried out as described ([Vanden Bossche et al, 1990]).

[4] = system: TA3-Ha mammary tumours; assay: TA3-Ha mammary carcinoma model; conditions: for toxicity findings: at toxic dose: RA 5, R116010 5, liarozole fumarate 20 mg kg^−1; for therapeutic window: maximum tolerated dose versus lowest active dose, TA3-Ha model; for lowest active dose inhibiting TA3-Ha tumour growth: day 1 until day 21, tumour weight
Protocol: (§2) Cells (1.5×10^6) were injected intraperitoneally in syngeneic A/J mice. […] Each group consisted of 10 animals for experiments with R116010 and of six animals for experiments with RA. All treatments were performed by oral gavage. […] The control groups were given the vehicle 20% 4-OH-β-cyclodextrine in sterile saline. Mice were daily examined for adverse drug effects. At the end of the experiments, subcutaneous tumours were excised 24 h after the last treatment and weighed to validate the antitumoural effects of the treatment.
(§3) Data are represented as box plots showing median group value, 25/75th percentile, 10/90th percentile and outliers. Groups were statistically compared to the vehicle-treated groups using the Mann–Whitney U-test. Significance was defined at the level of P<0.05.

[5] = system: RA metabolism in intact T47D cells; assay: Microcolumn assay for RA metabolism in intact T47D cells; type: cell-based, human; conditions: intact T47D cells pretreated 16 h with 1 μM RA; 0.1 μM [3H]RA, 90 min; read-out: IC50 inhibition of RA metabolism
Protocol: RA metabolism was quantitatively determined using the microcolumn assay as described previously ([Krekels et al, 1997]). […] Cells were then washed twice with culture medium, harvested and resuspended at 4×10^6 cells ml^−1. An aliquot of this cell suspension (450 μl) was incubated for 90 min in the presence of 0.1 μM [11, 12-^3H(N)]RA, after which 2 ml acetonitrile was added. After centrifugation for 10 min at 780 g, the resulting deproteinized supernatant was acidified with 2.5 ml of 40 mM acetic acid and applied to a 3 ml C18 Bond Elut LRC column (Varian, Harbor City, CA, USA; pretreated with 4 ml distilled water) under a vacuum of 127 mmHg using VAC ELUT SPS-24 and the effluent was collected. The column was eluted with 1 ml 40% acetonitrile and the effluent was collected in the same vial. Radioactivity in the collected effluent, containing the polar metabolites, was determined in a Packard Tri-carb 4530 liquid scintillation analyzer. Optiphase ‘Hi Safe II’ (Wallac, Milton Keynes, UK) was used as a scintillator. Data are presented as mean±s.d. of three or four independent experiments. The IC50-values were calculated by non-linear regression analysis using SigmaPlot 4.01 software.

[6] = system: T47D cells; assay: T47D cell proliferation (MTT assay, 7 days); type: cell-based, human
Protocol: T47D cells were seeded in Falcon® 96-well cell culture plates (Life Technologies, Merelbeke, Belgium) at 2500 cells per well in a total volume of 150 μl. Cells were allowed to adhere to plastic for 24 h. Drugs and/or medium were added to a final volume of 200 μl (day 0). Cells were grown under these conditions for 7 days, with renewal of medium and drugs on days 2 and 5. On day 7, medium was renewed and 25 μl MTT-solution was added, and cells were further incubated for 2 h in a cell incubator. The medium was aspirated and 25 μl Sorensen glycine buffer (0.1 M glycine, 0.1 M NaCl; pH 10.5) was added together with 100 μl DMSO to solubilize the blue MTT-formazan product. […] Data are presented as mean±s.d. of three or four independent experiments. Within an experiment, the result of each experimental condition is the mean of six replicate wells. The IC50-values were calculated by non-linear regression analysis using SigmaPlot 4.01 software.

[7] = molecular target: T3, CYP2A1 (Rattus norvegicus, UniProt P11711); assay: Testosterone 7α-hydroxylase in rat liver microsomes; type: biochemical; conditions: Rat liver microsomes
T3 construct: hydroxylation of testosterone (CYP2C11, CYP2A1, CYP3A, CYP2B1/2) in rat liver microsomes; from tissue; host or cells: rat liver, microsomes
T3 sequence (P11711 1-492): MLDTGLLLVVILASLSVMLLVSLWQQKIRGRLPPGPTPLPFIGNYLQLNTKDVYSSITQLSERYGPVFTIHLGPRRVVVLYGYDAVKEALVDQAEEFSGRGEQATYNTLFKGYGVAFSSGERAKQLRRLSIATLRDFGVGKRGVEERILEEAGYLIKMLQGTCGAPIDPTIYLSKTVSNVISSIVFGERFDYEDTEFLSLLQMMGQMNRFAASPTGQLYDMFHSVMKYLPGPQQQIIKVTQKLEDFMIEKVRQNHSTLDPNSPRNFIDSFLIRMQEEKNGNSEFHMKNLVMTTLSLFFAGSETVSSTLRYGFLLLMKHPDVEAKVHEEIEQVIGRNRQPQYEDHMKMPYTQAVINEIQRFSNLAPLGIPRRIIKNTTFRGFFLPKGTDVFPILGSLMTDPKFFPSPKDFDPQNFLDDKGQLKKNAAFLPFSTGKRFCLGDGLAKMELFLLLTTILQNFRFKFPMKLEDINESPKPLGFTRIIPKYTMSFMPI
Protocol: as §1

[8] = system: CYP2B1/2; assay: Testosterone 16β-hydroxylase in rat liver microsomes; type: biochemical; conditions: Rat liver microsomes
Protocol: as §1

[9] = in vivo; conditions: mouse, po
Protocol: as §2, §3

SMILES | IC50 [1] [µM] | IC50 [2] [µM] | IC50 [3] [µM] | toxicity findings [4] | therapeutic window [4] | lowest active dose inhibiting TA3-Ha tumour growth ([4]; oral, twice daily) [mg/kg] | IC50 [5] [µM] | decrease of T47D cell proliferation by itself ([6]; 10 μM, compound alone) | enhancement of the antiproliferative activity of RA ([6]; liarozole-fumarate tested up to 10 μM, T47D cells) | IC50 [7] [µM] | IC50 [8] [µM] | loss of body weight ([4]; RA 5 mg kg^−1, mice) [%] | dose at which toxicity was observed ([4]; mice, oral, twice daily, toxicity related to hypervitaminosis A) [mg/kg] | IC50 ([6]; Homo sapiens, T47D, 168 h, read-out: IC50 T47D cell proliferation) [µM] | MTD [9] [mg/kg]
Clc1cccc(C(c2ccc3[nH]cnc3c2)n2ccnc2)c1.Clc1cccc(C(c2ccc3[nH]cnc3c2)n2ccnc2)c1.O=C(O)/C=C/C(=O)O.O=C(O)/C=C/C(=O)O.O=C(O)/C=C/C(=O)O (racemic) [liarozole-fumarate, ±-5-[(3-chlorophenyl)(1H-imidazole-1-yl)methyl]-1H-benzimidazole (E)-2-butenedioate (2:3), reference compound] | 2.9 | 0.4 | 0.11 | hair loss and bone fractures | no therapeutic window | 10 | 1.4 | approximately 25% | unable to enhance | > 10 | 0.5 | – | – | – | –
CC1=C(/C=C/C(C)=C/C=C/C(C)=C/C(=O)O)C(C)(C)CCC1 [RA, All-trans-retinoic acid] | – | – | – | hair loss, and impaired movement due to bone fractures | does not show a real therapeutic window | 2.5 | – | – | – | – | – | 5 | 5 | 0.002 ± 0.0005 | 5
